From patent US5932709A (University of Michigan, priority 1997, dated 1999)
Converted amounts (≈) assume the structure as drawn. “Also recorded” adds a separate entry of the source. Where a name gives a salt, the structure may show the parent alone.

How the values were obtained:
tumor growth = settings: in words; cited from earlier work
[1] = as hydrochloride trihydrate; cited from earlier work
topoisomerase I = settings: in words; hydrochloride; cited from earlier work
carcinoma cells = settings: in words; hydrochloride; cited from earlier work
tumor cells = assay: MTT growth inhibition across tumor cell lines (P388, P388/CPT, B16, HT-29, MCF-7M); type: cell-based; settings: vs camptothecin
Method: (§1) [See "Rapid Colorimetric Assay For Cellular Growth And Survival: Application To Proliferation And Cytotoxicity Assays," J. Immun. Meth. 65:55 (1983)]. The assay utilizes a tetrazolium salt to quantitatively measure mammalian cell survival and proliferation by colorimetric methods. In particular, MTT, a pale yellow compound with minimal absorbance, is incubated with cancerous cells in addition to (or in the absence of) a particular camptothecin analog. Living cells with active mitochondrial enzymes metabolize the MTT into a dark blue/purple formazan product with high absorbance. The exact procedure used to test the camptothecin analogs of the present invention is described below.
Exponentially growing cells (1-2×10^3 cells, unless specified otherwise) in 0.1 mL medium were seeded on day 0 in a 96-well microtiter plate. On day 1, 0.1 mL aliquots of medium containing graded concentrations of test analogs were added to the cell plates. After incubation at 37° C. in a humidified incubator for 3 days (P388, P388/CPT, B16) or 6 days (HT-29, MCF-7M), the plates were centrifuged briefly and 100 μL of the growth medium was removed. Cell cultures were incubated with 50 μL of 3-(4,5-dimethylthiazol-2-yl)-2,5-diphenyl-tetrazolium bromide [MTT, 1 mg/mL in Dulbecco's phosphate buffered saline (PBS)] for 4 hr at 37° C. The resulting purple formazan precipitate was solubilized with 200 μL of 0.04 N HCl in isopropyl alcohol. Absorbance was monitored in a BioRad Model 3550 Microplate Reader at a test wavelength of 570 nm and a reference wavelength of 630 nm. The absorbance is transferred to a PC 486 computer. The IC50 values were determined by a computer program (EZ-ED50) that fits all of the data to the following four-parameter logistic equation: […]

[2] = Water solubility in phosphate buffered saline (spectrophotometric assay); type: physicochemical; settings: aqueous buffer; water solubility; PBS pH 7.5, room temperature, 24 hr
Method: Approximately 5 mg of test compound was suspended in 1 mL of PBS in a 1.5 mL cryovial. The suspensions were mixed continuously on a Thermolyne vari-mix at room temperature for 24 hr. The suspensions were then centrifuged at 14000×g for 2 minutes to separate the undissolved materials. The supernatant fluids were diluted appropriately with PBS and the ultraviolet spectrums were recorded on a Beckman 640 DU spectrophotometer. For comparison, a standard stock (2 mg/mL in DMSO) solution was prepared for each analog. The ultraviolet spectrum of a 20 of 40 μg/mL standard working solution was measured. The water solubility of each analog was calculated based on the following formula:
Cunknown =Cstandard ×(Aunknown
where Cunknown is the concentration of the unknown solution to be determined; Cstandard is the concentration of the standard working solution (either 20 or 40 μg/mL); Astandard is the absorbance at 350 nm of the standard working solution; DDilution is the appropriate dilution factor used so that the absorbance of the unknown working solution is within the dynamic range of the UV spectrophotometer (less than 2 absorbance units).

[3] = molecular target: T1, human placental topoisomerase I (Homo sapiens, UniProt P11387); assay: Inhibition of topoisomerase I catalytic activity (relaxation of supercoiled SV40 DNA); type: biochemical; settings: highest concentration tested (100 μg/mL), in words
T1 construct: purchased TopoGen; host or cells: human placenta
T1 sequence (P11387 1-765): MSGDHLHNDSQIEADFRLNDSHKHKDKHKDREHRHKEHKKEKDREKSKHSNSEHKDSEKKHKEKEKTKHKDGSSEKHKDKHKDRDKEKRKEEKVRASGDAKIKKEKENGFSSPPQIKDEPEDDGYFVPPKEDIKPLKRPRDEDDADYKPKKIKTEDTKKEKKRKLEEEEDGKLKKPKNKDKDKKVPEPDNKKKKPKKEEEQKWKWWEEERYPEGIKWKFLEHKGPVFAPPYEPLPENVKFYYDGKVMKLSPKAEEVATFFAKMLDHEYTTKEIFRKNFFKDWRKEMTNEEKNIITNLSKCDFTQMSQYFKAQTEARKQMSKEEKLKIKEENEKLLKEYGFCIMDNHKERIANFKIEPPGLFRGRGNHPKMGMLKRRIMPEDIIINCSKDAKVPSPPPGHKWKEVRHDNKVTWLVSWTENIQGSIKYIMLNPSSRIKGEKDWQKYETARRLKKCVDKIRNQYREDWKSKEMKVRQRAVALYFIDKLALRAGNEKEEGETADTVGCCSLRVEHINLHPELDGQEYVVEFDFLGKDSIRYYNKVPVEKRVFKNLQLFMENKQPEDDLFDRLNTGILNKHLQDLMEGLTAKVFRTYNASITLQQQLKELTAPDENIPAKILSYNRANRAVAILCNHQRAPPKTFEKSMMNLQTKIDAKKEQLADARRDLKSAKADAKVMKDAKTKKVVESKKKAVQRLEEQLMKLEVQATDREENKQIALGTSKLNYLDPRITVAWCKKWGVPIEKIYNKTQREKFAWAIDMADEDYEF
Method: The topoisomerase I catalytic activity was measured by converting the supercoiled SV40 DNA (Form I) to the relaxed form (Form Io). All reactions were performed in 20 μL reaction buffer (Tris-HCl, 10 mM, pH 7.5; EDTA, 1 mM; NaCl, 100 mM) with 0.25 μg SV40 DNA, 0.5 unit of human placental topoisomerase I (TopoGen) and graded concentrations of the analog tested. The reaction mixtures were incubated at 37° C. for 30 minutes. […] Ten μL of the reaction mixture was loaded onto a 1% agarose gel prepared in TAE buffer containing 2 μg/mL chloroquine; and the electrophoresis was performed at 82 volt for 4.5 hr in the TAE buffer containing 2 μg/mL chloroquine. […] The gels were then stained with 0.5 μg/mL ethidium bromide solution for 30 min or longer (if chloroquine is present during the electrophoresis step), and destained with 5 changes of deionized water. […] The DNA bands (image) on the negative were densitometrically scanned with a Molecular Dynamic Personal Densitometer. The percent inhibition of Toposiomerase I activity is calculated based on the following equation:
% Inhibition=(FSC(E+D) -FSC(E))/(FSC(C)
where FSC(E+D) represents fraction of supercoiled DNA in the presence of enzyme and drug; FSC(E) represents fraction of supercoiled DNA in the presence of enzyme alone; FSC(C) represents fraction of supercoiled DNA in the untreated SV40 DNA; the IC50 value was estimated using the same four-parameter logistic equation described in the in vitro growth inhibition studies.

[4] = system: B16 murine melanoma cells; assay: MTT growth inhibition, B16; type: cell-based; settings: Mus musculus, 72 h, 3 days, read-out: Growth Inhibitory Activity IC50
Method: (§2) Camptothecin was used as a control to test the anti-cancer efficacy of the novel camptothecin analogs of the present invention.
(§3) Murine B16 melanoma cell line was grown in RPMI 1640 medium supplemented with 10% heat-inactivated fetal bovine serum, 2 mM L-glutamine, 50 units/mL penicillin, 50 μg/mL streptomycin, 25 μg/mL gentamicin, 0.75% sodium bicarbonate 10 mM HEPES buffer (pH 7.4), and 0.06 mg/mL AntiPPLO. Murine P388 leukemic cell line and human HT-29 colon adenocarcinoma line were maintained in RPMI 1640 medium supplemented with 10% heat-inactivated fetal bovine serum. […] MCF-7M human breast adenocarcinoma was maintained in IMEM supplemented with 5% non heat-inactivated fetal bovine serum and 1 nM insulin.
as §1
(§4) Exponentially growing cells (1-2×10^3 cells, unless specified otherwise) in 0.1 mL medium were seeded on day 0 in a 96-well microtiter plate. On day 1, 0.1 mL aliquots of medium containing graded concentrations of test analogs were added to the cell plates. After incubation at 37° C. in a humidified incubator for 3 days (P388, P388/CPT, B16) or 6 days (HT-29, MCF-7M), the plates were centrifuged briefly and 100 μL of the growth medium was removed. Cell cultures were incubated with 50 μL of 3-(4,5-dimethylthiazol-2-yl)-2,5-diphenyl-tetrazolium bromide [MTT, 1 mg/mL in Dulbecco's phosphate buffered saline (PBS)] for 4 hr at 37° C. The resulting purple formazan precipitate was solubilized with 200 μL of 0.04 N HCl in isopropyl alcohol. Absorbance was monitored in a BioRad Model 3550 Microplate Reader at a test wavelength of 570 nm and a reference wavelength of 630 nm. The absorbance is transferred to a PC 486 computer. The IC50 values were determined by a computer program (EZ-ED50) that fits all of the data to the following four-parameter logistic equation:
(§5) Y=(Amax -Amin)/(1+[X/IC^50 ])^n +Amin
(§6) where Amax is the absorbance of control cells, Amin is the absorbance of cells in the presence of highest agent concentration, IC^50 is the concentration of agent that inhibits the cell growth by 50% of control cells (based on the absorbance) and n is the slope of the curve.

[5] = system: P388 murine leukemia cells; assay: MTT growth inhibition, P388; type: cell-based; settings: Mus musculus, 72 h, 3 days, read-out: Growth Inhibitory Activity IC50
Method: as §2, §3, §1, §4, §5, §6

[6] = system: MCF-7 human breast tumor cells; assay: MTT growth inhibition, MCF-7; type: cell-based; settings: MCF7, 144 h, MCF-7, MTT, 6 days, read-out: Growth Inhibitory Activity IC50
Method: as §2, §3, §1, §4, §5, §6

[7] = system: HT-29 human colon adenocarcinoma cells; assay: MTT growth inhibition, HT-29; type: cell-based; settings: 144 h, HT-29, MTT, 6 days, read-out: Growth Inhibitory Activity IC50
Method: as §2, §3, §1, §4, §5, §6

[8] = system: P388/CPT CPT-resistant murine leukemia cells; assay: MTT growth inhibition, P388/CPT; type: cell-based; settings: Mus musculus, 72 h, 3 days, read-out: Growth Inhibitory Activity IC50
Method: as §2, §3, §1, §4, §5, §6

[9] = cited from earlier work

For `CCc1c2c(nc3ccc(OC(=O)N4CCC(N5CCCCC5)CC4)cc13)-c1cc3c(c(=O)n1C2)COC(=O)[C@]3(O)CC` [CPT-11, 7-ethyl-10-[4-(piperidino)-1-piperidino]carboxylcamptothecin hydrochloride], the “effectiveness against tumor growth in animal studies” value (tumor growth) is listed as “significant in vivo preclinical activity”, the water solubility [1] is listed as 32000 µg/mL and the “inhibition of Topoisomerase I activity” value (topoisomerase I) is listed as “inability to inhibit Topoisomerase I activity; also recorded: lack of topoisomerase I inhibitory activity”. For the same compound, the “in vitro efficacy / activity” value (carcinoma cells) was “negligible in vitro activity”.
For `CCCCCC(=O)O[C@]1(CC)C(=O)OCc2c1cc1n(c2=O)Cc2cc3ccccc3nc2-1` [HAR2, camptothecin 20-n-hexanoate], the “reduction of growth inhibitory activity” value (tumor cells) was ~100 fold, the solubility at 24 h [2] was 2.9 µg/mL (≈ 6.49 µM) and the “topoisomerase I inhibition” value [3] was “Neither the acetate (HAR3) nor the hexanoate (HAR2) inhibited the topoisomerase I activity”.
For `CC[C@@]1(OC(C)=O)C(=O)OCc2c1cc1n(c2=O)Cc2cc3ccccc3nc2-1` [HAR3], the “reduction of growth inhibitory activity” value (tumor cells) was “approximately 10 fold”, the solubility at 24 h [2] was 6.5 µg/mL (≈ 16.6 µM) and the “topoisomerase I inhibition” value [3] was “Neither the acetate (HAR3) nor the hexanoate (HAR2) inhibited the topoisomerase I activity”.
In the case of `CC[C@@]1(O)C(=O)OCc2c1cc1n(c2=O)Cc2cc3ccccc3nc2-1` [camptothecin, reference compound], the IC50 [4] is listed as 0.015 µg/mL (≈ 0.0431 µM), the “effectiveness against tumor growth in animal studies” value (tumor growth) is listed as “significant efficacy in animal tumor models” and the IC50 [5] is listed as 0.01 µg/mL (≈ 0.0287 µM). The IC50 [6] was 0.001 µg/mL (≈ 0.00287 µM), the IC50 [7] was 0.002 µg/mL (≈ 0.00574 µM) and the IC50 [8] was 1.12 µg/mL (≈ 3.22 µM). The solubility at 24 h [2] was 20 µg/mL (≈ 57.4 µM) and the “side effects in human clinical studies” value ([9]; human, in vivo) was “vomiting and diarrhea to myelosuppression and hemorrhagic cystitis”.
For `CC[C@@](O)(C(=O)O)c1cc2n(c(=O)c1CO)Cc1cc3ccccc3nc1-2` [sodium salt of camptothecin], the anti-cancer efficacy ([9]; sodium salt vs unmodified camptothecin, clinical trials) is listed as “much less than unmodified camptothecin”.
